The record followed here is PMC4028107, “Adenosine deaminase activity modulation by some street drug: molecular docking simulation and experimental investigation” (DARU Journal of Pharmaceutical Sciences, 2014).

In test [1] the target is T1, Adenosine deaminase (EC 3.5.4.4) extracted from bovine spleen (Bos taurus, UniProt P56658).
T1 construct: Adenosine deaminase (EC 3.5.4.4) extracted from bovine spleen; purchased sigma; host or cells: bovine spleen (tissue extract)
T1 sequence (P56658 1-363): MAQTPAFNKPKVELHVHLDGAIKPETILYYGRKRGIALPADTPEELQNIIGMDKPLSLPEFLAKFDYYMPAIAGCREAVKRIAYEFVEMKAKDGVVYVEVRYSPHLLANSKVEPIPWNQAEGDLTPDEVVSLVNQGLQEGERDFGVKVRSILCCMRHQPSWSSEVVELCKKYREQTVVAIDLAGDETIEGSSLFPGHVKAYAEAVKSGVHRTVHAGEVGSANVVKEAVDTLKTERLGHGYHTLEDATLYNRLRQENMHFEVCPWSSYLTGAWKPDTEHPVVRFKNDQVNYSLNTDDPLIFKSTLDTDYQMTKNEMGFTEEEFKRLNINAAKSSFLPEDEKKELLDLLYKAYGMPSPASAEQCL
The experiment in a line: biochemical. Type of test: biochemical. The note with it: for IC50: 2 mg/ml adenosine deaminase enzyme, 37°C, 30 min incubation, PBS pH 7.4, compounds 5–300 μM. As for the experimental part:
Adenosine deaminase (EC 3.5.4.4) extracted from bovine spleen was purchased from sigma, and all other used materials were of analytical grade and acquired from Merck. PBS that is used in assay was adjusted at 7.4, at which, enzyme has optimal activity in [38, 39]. All solutions were prepared in MilliQ (Millipore, USA) water.
Released ammonia resulted by enzyme activity was determined by specific Berthelot colorimetric method which was used for micro determination of ADA activity in serum. […] In this process sodium nitroprusside is used as the catalyst. The reaction was initiated by addition of adenosine as a substrate at 37°C to preincubated enzyme with different concentrations of tested compounds at different concentrations (5–300 μM). Finally, the enzymatic reaction was stopped at the end of 30 minutes of incubation by adding phenol nitroprusside solution. The mixture kept again for 30 minutes at 37°C before absorbance determination.
Obtained absorbance was normalized through blank sample, and IC50 values were calculated by Prism software (Ver. 5, GraphPad Software Inc., San Diego CA,).

Test [2] addresses T2, adenosine deaminase (Bos taurus, UniProt P56658).
T2 construct: Adenosine deaminase (EC 3.5.4.4) extracted from bovine spleen; purchased sigma; host or cells: bovine spleen (tissue extract)
T2 sequence (P56658 1-363): T1 sequence (P56658 1-363)
The experiment in a line: Fluorescence spectroscopy of ADA (Trp emission). It counts as binding, bovine. The settings on record: excitation 290 nm, emission 300-400 nm, pH 7.4, enzyme 6 μM, compounds 1.7 to 73.4 μM. As for the experimental part:
Fluorescence spectroscopy was performed on a Hitachi fluorescence spectrophotometer model MPF-4 with 1 cm path length fluorescence cuvette and final volume of 400 μL. The excitation wavelength was adjusted in 290 nm, and the emission was scanned every 1 nm in the range of 300 to 400 nm.

Test [3] addresses T2, adenosine deaminase. Put plainly: Circular dichroism spectroscopy of ADA. The note with it: far-UV 200–260 nm, pH 7.4; cocaine concentration around 180 μM. Also on record: species or system bovine. The procedure: CD spectra were measured in the far-UV (200–260 nm) region with JASCO J-715 spectropolarimeter (Japan). JASCO J-715 software not only gave us the possibility of data smoothing, but also used to predict the secondary structure changes of the protein according to the statistical method. Each scan was recorded in 1 nm increments at 37°C, repeated three times, and averaged. The protein was in 0.1 M PBS buffer, pH = 7.4, and its concentration was adjusted to 2 mg/ml in 1 cm path length cuvette. The results were expressed in molar ellipticity [θ] (deg cm^2.dmol^−1).

What is called IC50 is the concentration needed to halve the response being measured.

In test [1], `CCOc1ccc2c3c1O[C@H]1[C@@H](O)C=C[C@H]4[C@@H](C2)N(C)CC[C@@]341` [Ethylmorphine] registered an IC50 of 35 µM. Further, at adenosine deaminase [2], the “change in fluorescence spectra of ADA” value was “do not show noticeable change and shift”.
`COC(=O)[C@H]1[C@@H](OC(=O)c2ccccc2)C[C@@H]2CC[C@H]1N2C` [Cocaine] gave a concentration for half-maximal inhibition (IC50) in test [1] of 180 µM. In addition, on adenosine deaminase [2], the “change in fluorescence spectra of ADA” value is “bathochromic shift”. In addition, at adenosine deaminase [3], the “change in CD spectra of ADA” value is given as “drastic changes”.
As for `COC1=CC=C2[C@H]3Cc4ccc(OC)c5c4[C@@]2(CCN3C)[C@H]1O5` [Thebaine], in test [1], the “concentration up to which ADA was activated” value came to 50 µM and the midpoint of inhibition, the IC50, lay at 163 µM. Moreover, the “change in fluorescence spectra of ADA” value at adenosine deaminase [2] was “do not show noticeable change and shift”.
